# Measurements reported in US20090208620A1, “Alimentary Compositions and Methods For Metabolic Modulation” (VDF FUTURECEUTICALS, INC., priority 2003, published 2009).
# Several values for one entry are separate records, joined by “and”; a condition that tells them apart may be missing. Identical values can stand only once.
# Experiments:
# activated AMPK = assay: Western immunoblot for activated (phospho-Thr172) AMPK in muscle cells; format: cell-based, mouse; conditions: for FOLD AMPK ACTIVATION (OVER CONTROL): cells treated 30 minutes at 37° C
# Experimental: (§1) The levels of Glut-4, activated AMPK and activated Akt were measured in mouse muscle cells C2C12 (from ATTC) and in primary culture of human skeletal muscle cells (Clonetics, Inc.) using Western immunoblotting. C2C12 cells were plated at 1.5×1-exp5 cells per mL/well (12-well plate) in standard cell culture medium (DMEM supplemented with 10% fetal bovine serum (FBS), 25 mM glucose, 20 mM Hepes, 4 mM glutamine and 2 mM sodium pyruvate. 48 hrs after the plating, medium was changed to differentiation medium (DMEM supplemented with 5 mM of glucose and 0.5% of FBS) for next 3-4 days to stimulate the formation of myotubes. Three hours before the treatment with selected agents, cells were washed with PBS and transferred to PBS supplemented with 5 mM of glucose.
# (§2) Human skeletal muscle cells (HSKM) were cultured in SKBM-2 mediums provided by Clonetics. 48 hrs after cell plating, medium was changed to SKBM medium to stimulate differentiation of the cells to myotubes. When differentiated, the myotubes were transferred to PBS supplemented with 5 mM glucose for three hrs before the treatment.
# (§3) Analysis of C2C12 cells for the level of activated AMPK, Akt and the level of GLUT-4 was performed in the same experimental system. The cells were treated for 30 minutes at 37° C. […] Subsequently, 20 μg per sample of sample protein was used for Western analysis using NuPage 10% Bis/Tris gels (Invitrogen). After exposure of membranes to primary and secondary antibodies AMPK, AKT or Glut-4 was detected using ECL-Plus (Amersham) following producer's instruction. Chemilumiscent signals were detected by using ChemiDoc system from Biorad. Intensity of detected signals were analyzed and measured using Quantity One software (Biorad). Alternatively, the level of phosphorylated AMPK was detected using ECL kit from Amersham and short exposure to Kodak films.
# (§4) Experimental setup: Cell Culture was followed by treatment with selected contemplated compounds, which was followed by cell lysis and western blot analysis for AMPK, Akt, GLUT4, total AMPK, and total Akt. Signals were acquired accordingly.
# activated Akt = assay: Western immunoblot for activated (phospho-Ser473) Akt in muscle cells; format: cell-based, mouse; conditions: for FOLD AKT ACTIVATION (OVER CONTROL): cells treated 30 minutes at 37° C
# Experimental: as §1, §2, §3, §4
# GLUT-4 = assay: Western immunoblot for GLUT-4 protein level in C2C12 cells; format: cell-based, mouse
# Experimental: as §1
# Analysis of C2C12 cells for the level of activated AMPK, Akt and the level of GLUT-4 was performed in the same experimental system. The cells were treated for 30 minutes at 37° C. After the treatment, the cells were washed with ice-cold PBS and lysed with 80 μl of lysis buffer/well (M-PER buffer from Pierce supplemented with protease and phosphatase inhibitor mix (Calbiochem) for 10 minutes on ice. Next, the plates were transferred to −20° C. to improve the lysis of the cells. Next cells were sonicated for 5 minutes and lysate was transferred to Eppendorf tubes and centrifuged at 14,000 rpm for 10 minutes. Supernatants were collected in fresh Eppendorf tubes and kept on ice to measure the amount of total proteins. 3 μl of each lysate was used to measure the protein concentration using standard Bradford method (Biorad). Subsequently, 20 μg per sample of sample protein was used for Western analysis using NuPage 10% Bis/Tris gels (Invitrogen). After exposure of membranes to primary and secondary antibodies AMPK, AKT or Glut-4 was detected using ECL-Plus (Amersham) following producer's instruction. Chemilumiscent signals were detected by using ChemiDoc system from Biorad. Intensity of detected signals were analyzed and measured using Quantity One software (Biorad). Alternatively, the level of phosphorylated AMPK was detected using ECL kit from Amersham and short exposure to Kodak films.
# Experimental setup: Cell Culture was followed by treatment with selected contemplated compounds, which was followed by cell lysis and western blot analysis for AMPK, Akt, GLUT4, total AMPK, and total Akt. Signals were acquired accordingly. Primary antibodies used in these studies are the following: Anti-phospho-AMPK (Thr172), mouse, rabbit IgG, from Cell Signaling, #2531; Anti-phospho-Akt (Ser473), mouse, rabbit IgG, Cell Signaling, #9271; Anti-Glut-4, mouse, rabbit IgG, Calbiochem, #400064; Anti-AMPK (total), mouse, rabbit IgG, Cell Signaling, #2532; Anti-Akt (total), mouse, rabbit IgG, Cell Signaling, #9272.
# The effects of kinetin, N^2-Acetyl-Guanosine and N^2-Acetyl-Guanine on GLUT-4 protein level in C2C12 cells were investigated following the same experimental design as described for AMPK and AKT. Anti-Glut-4 antibody used in this study was from Calbiochem. […] Table 3 refers to multiple independent experiments where multiple identical concentrations for the same reagents are indicated.
# muscle cells = assay: Total glucose uptake in vitro with fluorescent glucose analog; format: cell-based; conditions: for AVERAGE (N = 3) fluorescence of fluorescent glucose in the cells / FOLD CHANGE IN TOTAL GLUCOSE UPTAKE (OVER CONTROL): 30 minutes at 37 C
# Experimental: Total glucose uptake was measured using fluorescent glucose analog from Molecular Probes. Briefly, muscle cells were treated with kinetin, N^2-Acetyl-Guanosine and N^2-Acetyl-Guanine for 30 minutes at 37 C first and subsequently, these cells were exposed to 500 μM of fluorescent glucose analog for 5 minutes at room temperature. Next, cells were washed twice with cold Krebs-Hepes buffered solution and fixed in 70% ethanol in water. Fluorescence of fluorescent glucose in the cells was measured using fluorescent plate reader at 480/530 nm (excitation/emission). […] Table 4 refers to multiple independent experiments where multiple identical concentrations for the same reagents are indicated.
# [1] = system: rat epitrochlearis muscle; assay: Glucose uptake in rat epitrochlearis muscle; format: cell-based; design: unit not given here; conditions: 60 minute incubation at 37 C, 10 minute transport at 30 C
# Experimental: Glucose uptake in rat epitrochlearis muscle was determined following a protocol substantially as described by Brozinick, J. T., and Birnbaum, M. J. (1998) J. Biol. Chem. 273(24), […]. Results are listed in Tables 5 and 6, wherein data of Table 5 were obtained for 60 minute incubations (at 37 C), 10 minute transport at (30 C) and data of Table 6 were obtained for 60 minute incubations (at 37 C), 10 minute transport at (30 C) of the compounds as indicated (K is kinetin, AG is N2-acetylguanine).
# [2] = Oral availability and serum level of DHZ by ELISA; format: in vivo, C57/B1 mice; conditions: 100 microgram/dose, mice; for concentration at 0 minutes / concentration at 15 minutes / concentration at 30 minutes / concentration at 60 minutes / concentration at 120 minutes: C57/B1, mouse, serum
# Experimental: C57/B1 mice were treated with 100 microgram/dose of dihydrozeatin (DHZ) for 0, 15, 30, 60 and 120 minutes following oral or i.p. administration. Serum level of DHZ in pg/ml was measured using DHZ Elisa following procedures as enclosed in a commercially available test kit (e.g., dihydrozeatin competitive ELISA test system for plant growth hormone detection, Agdia, Elkhard, Ind.).
# [3] = concentration 0.15 (unit not given)
# [4] = concentration 0.3 (unit not given)
# [5] = concentration 1.5 (unit not given)
# [6] = concentration 3.75 (unit not given)
# [7] = concentration 7.5 (unit not given)
compound,measurement,setting,value
"CC(=O)Nc1nc2nc[nH]c2c(=O)[nH]1 [N^2-Acetyl-Guanine, N2-acetylguanine]",FOLD AMPK ACTIVATION (OVER CONTROL),activated AMPK; 0.3 microM,5.42 fold
same,FOLD AMPK ACTIVATION (OVER CONTROL),activated AMPK; 1.5 microM,5.85 fold
same,FOLD AMPK ACTIVATION (OVER CONTROL),activated AMPK; 7.5 microM,6.00 fold
same,FOLD AMPK ACTIVATION (OVER CONTROL),activated AMPK; 37.5 microM,6.51 fold
same,effect on AMPK activity (in words),activated AMPK; no concentration stated,potent activators of AMPK
same,FOLD AKT ACTIVATION (OVER CONTROL),activated Akt; 0.3 microM,3.50 fold and 2.44 fold
same,FOLD AKT ACTIVATION (OVER CONTROL),activated Akt; 7.5 microM,2.58 fold and 1.95 fold
same,effect on Akt activity (in words),activated Akt; no concentration stated,potent activators of AMPK as well as Akt
same,effect on GLUT-4 protein level (in words),GLUT-4,potently increase GLUT-4 protein level
same,FOLD CHANGE IN GLUT-4 LEVEL (OVER CONTROL),GLUT-4; 0.3 microM,3.94 fold
same,FOLD CHANGE IN GLUT-4 LEVEL (OVER CONTROL),GLUT-4; 1.5 microM,3.84 fold
same,FOLD CHANGE IN GLUT-4 LEVEL (OVER CONTROL),GLUT-4; 7.5 microM,3.24 fold
same,FOLD CHANGE IN GLUT-4 LEVEL (OVER CONTROL),GLUT-4; 37.5 microM,2.80 fold
same,effect on glucose uptake in muscle cells in vitro (in words),muscle cells,potently enhance glucose uptake in muscle cells in vitro
same,AVERAGE (N = 3) fluorescence of fluorescent glucose in the cells,muscle cells; [3],86.4 +/− 2.3
same,FOLD CHANGE IN TOTAL GLUCOSE UPTAKE (OVER CONTROL),muscle cells; [3],1.85 fold
same,AVERAGE (N = 3) fluorescence of fluorescent glucose in the cells,muscle cells; [4],54.5 +/− 1.7
same,FOLD CHANGE IN TOTAL GLUCOSE UPTAKE (OVER CONTROL),muscle cells; [4],2.68 fold
same,AVERAGE (N = 3) fluorescence of fluorescent glucose in the cells,muscle cells; [5],55.2 +/− 0.8
same,FOLD CHANGE IN TOTAL GLUCOSE UPTAKE (OVER CONTROL),muscle cells; [5],2.71 fold
same,AVERAGE (N = 3) fluorescence of fluorescent glucose in the cells,muscle cells; [6],115.9 +/− 3.7
same,FOLD CHANGE IN TOTAL GLUCOSE UPTAKE (OVER CONTROL),muscle cells; [6],2.48 fold
same,AVERAGE (N = 3) fluorescence of fluorescent glucose in the cells,muscle cells; [7],59.6 +/− 0.4
same,FOLD CHANGE IN TOTAL GLUCOSE UPTAKE (OVER CONTROL),muscle cells; [7],2.93 fold
same,"Glucose uptake, Mean",[1]; 0.1 uM,1.12
same,"Glucose uptake, Mean",[1]; 0.4 uM,1.43
"CC(CO)CCNc1ncnc2nc[nH]c12 (centres unmarked) [Dihydro-Zeatin, dihydrozeatin]",FOLD AMPK ACTIVATION (OVER CONTROL),activated AMPK; 0.5 microM,2.25 fold
same,FOLD AMPK ACTIVATION (OVER CONTROL),activated AMPK; 5.0 microM,0.59 fold
same,FOLD AMPK ACTIVATION (OVER CONTROL),activated AMPK; 50.0 microM,0.88 fold
same,concentration at 0 minutes,[2]; ip,0.3 ng/mL
same,concentration at 15 minutes,[2]; ip,1.15 ng/mL
same,concentration at 30 minutes,[2]; ip,0.991 ng/mL
same,concentration at 60 minutes,[2]; ip,0.746 ng/mL
same,concentration at 120 minutes,[2]; ip,0.471 ng/mL
same,concentration at 0 minutes,[2]; Oral,0.3 ng/mL
same,concentration at 15 minutes,[2]; Oral,0.952 ng/mL
same,concentration at 30 minutes,[2]; Oral,1.02 ng/mL
same,concentration at 60 minutes,[2]; Oral,0.961 ng/mL
same,concentration at 120 minutes,[2]; Oral,0.853 ng/mL
same,oral bioavailability (in words),[2],readily bioavailable from the oral route
same,time over which significant serum concentrations can be maintained,[2],at least 120 minutes
